Experimental data from ChEMBL document CHEMBL4229379, “Synthesis and structure-activity relationship of novel bisindole amidines active against MDR Gram-positive and Gram-negative bacteria” (Eur J Med Chem, 2018).
≈ marks a conversion by molar mass, not a printed value.

Tests used:
Enterococcus faecalis [1] = assay: Antibacterial activity against vancomycin-resistant Enterococcus faecalis ATCC 51299 after 18 hrs by CLSI broth microdilution method; format: functional; conditions: ATCC 51299, 18 h
Escherichia coli [2] = assay: Antibacterial activity against extended-spectrum beta-lactamase harboring Escherichia coli 12-15 after 18 hrs by CLSI broth microdilution method; format: functional; conditions: 12-15, 18 h
Pseudomonas aeruginosa [3] = assay: Antibacterial activity against Pseudomonas aeruginosa ATCC 27853 after 18 hrs by CLSI broth microdilution method; format: functional; conditions: ATCC 27853, 18 h
Klebsiella pneumoniae [4] = assay: Antibacterial activity against extended-spectrum beta-lactamase deficient Klebsiella pneumoniae 12-4 after 18 hrs by CLSI broth microdilution method; format: functional; conditions: 12-4, 18 h
Enterococcus faecium [5] = assay: Antibacterial activity against vancomycin-resistant Enterococcus faecium 12-1 after 18 hrs by CLSI broth microdilution method; format: functional; conditions: 12-1, 18 h
Staphylococcus aureus [6] = assay: Antibacterial activity against methicillin-resistant Staphylococcus aureus 12-33 after 18 hrs by CLSI broth microdilution method; format: functional; conditions: 12-33, 18 h
[7] = system: Stenotrophomonas maltophilia; assay: Antibacterial activity against Stenotrophomonas maltophilia ATCC 13636 after 18 hrs by CLSI broth microdilution method; format: functional; conditions: ATCC 13636, 18 h
Klebsiella pneumoniae [8] = assay: Antibacterial activity against extended-spectrum beta-lactamase harboring Klebsiella pneumoniae ATCC 700603 after 18 hrs by CLSI broth microdilution method; format: functional; conditions: Klebsiella pneumoniae, 700603, 18 h
[9] = system: Acinetobacter calcoaceticus; assay: Antibacterial activity against Acinetobacter calcoaceticus ATCC 19606 after 18 hrs by CLSI broth microdilution method; format: functional; conditions: ATCC 19606, 18 h
Klebsiella aerogenes = assay: Antibacterial activity against Enterobacter aerogenes ATCC 13048 after 18 hrs by CLSI broth microdilution method; format: functional; conditions: ATCC 13048, 18 h
[10] = system: Staphylococcus epidermidis; assay: Antibacterial activity against methicillin-resistant Staphylococcus epidermidis 12-8 after 18 hrs by CLSI broth microdilution method; format: functional; conditions: 12-8, 18 h
Enterococcus faecium [11] = assay: Antibacterial activity against vancomycin-resistant Enterococcus faecium ATCC 700221 after 18 hrs by CLSI broth microdilution method; format: functional; conditions: ATCC 700221, 18 h
Enterobacter cloacae = assay: Antibacterial activity against Enterobacter cloacae ATCC 43560 after 18 hrs by CLSI broth microdilution method; format: functional; conditions: ATCC 43560, 18 h
Escherichia coli [12] = assay: Antibacterial activity against extended-spectrum beta-lactamase deficient Escherichia coli ATCC 25922 after 18 hrs by CLSI broth microdilution method; format: functional; conditions: ATCC 25922, 18 h
Staphylococcus aureus [13] = assay: Antibacterial activity against methicillin-sensitive Staphylococcus aureus 15 after 18 hrs by CLSI broth microdilution method; format: functional; conditions: Staphylococcus aureus, 15, 18 h
Enterococcus faecalis [14] = assay: Antibacterial activity against vancomycin-resistant Enterococcus faecalis 09-9 after 18 hrs by CLSI broth microdilution method; format: functional; conditions: 09-9, 18 h
Serratia marcescens = assay: Antibacterial activity against Serratia marcescens ATCC 21074 after 18 hrs by CLSI broth microdilution method; format: functional; conditions: ATCC 21074, 18 h
Enterococcus faecium [15] = assay: Antibacterial activity against vancomycin-sensitive Enterococcus faecium 12-3 after 18 hrs by CLSI broth microdilution method; format: functional; conditions: 12-3, 18 h
Klebsiella pneumoniae [16] = assay: Antibacterial activity against new delhi metallo-beta-lactamase-1 harboring Klebsiella pneumoniae ATCC BAA-2146 after 18 hrs by CLSI broth microdilution method; format: functional; conditions: ATCC BAA-2146, 18 h
Klebsiella pneumoniae [17] = assay: Antibacterial activity against extended-spectrum beta-lactamase deficient Klebsiella pneumoniae 7 after 18 hrs by CLSI broth microdilution method; format: functional; conditions: Klebsiella pneumoniae, 7, 18 h
[18] = Cytotoxicity against HEK293T cells assessed as reduction in cell viability after 48 hrs by MTS assay; format: cell-based, HEK-293T; conditions: human
Klebsiella pneumoniae [19] = assay: Antibacterial activity against extended-spectrum beta-lactamase harboring Klebsiella pneumoniae 12-8 after 18 hrs by CLSI broth microdilution method; format: functional; conditions: 12-8, 18 h
Escherichia coli [20] = assay: Antibacterial activity against extended-spectrum beta-lactamase deficient Escherichia coli 12-14 after 18 hrs by CLSI broth microdilution method; format: functional; conditions: 12-14, 18 h
Pseudomonas aeruginosa [21] = assay: Antibacterial activity against Pseudomonas aeruginosa 12-16 after 18 hrs by CLSI broth microdilution method; format: functional; conditions: 12-16, 18 h
Citrobacter freundii = assay: Antibacterial activity against Citrobacter freundii ATCC 43864 after 18 hrs by CLSI broth microdilution method; format: functional; conditions: ATCC 43864, 18 h
Proteus mirabilis = assay: Antibacterial activity against Proteus mirabilis 12-6 after 18 hrs by CLSI broth microdilution method; format: functional; conditions: 12-6, 18 h
Staphylococcus aureus [22] = assay: Antibacterial activity against methicillin-sensitive Staphylococcus aureus ATCC 29213 after 18 hrs by CLSI broth microdilution method; format: functional; conditions: ATCC 29213, 18 h
Enterococcus faecalis [23] = assay: Antibacterial activity against vancomycin-sensitive Enterococcus faecalis 12-5 after 18 hrs by CLSI broth microdilution method; format: functional; conditions: 12-5, 18 h
Enterococcus faecalis [24] = assay: Antibacterial activity against vancomycin-sensitive Enterococcus faecalis ATCC 29212 after 18 hrs by CLSI broth microdilution method; format: functional; conditions: ATCC 29212, 18 h
Staphylococcus aureus [25] = assay: Antibacterial activity against methicillin-resistant Staphylococcus aureus ATCC 33591 after 18 hrs by CLSI broth microdilution method; format: functional; conditions: ATCC 33591, 18 h
Providencia rettgeri = assay: Antibacterial activity against Providencia rettgeri ATCC 31052 after 18 hrs by CLSI broth microdilution method; format: functional; conditions: ATCC 31052, 18 h
[26] = system: Staphylococcus epidermidis; assay: Antibacterial activity against methicillin-sensitive Staphylococcus epidermidis ATCC 12228 after 18 hrs by CLSI broth microdilution method; format: functional; conditions: ATCC 12228, 18 h
Pseudomonas aeruginosa [27] = assay: Antibacterial activity against Pseudomonas aeruginosa PAO1 after 18 hrs by CLSI broth microdilution method; format: functional; conditions: PAO1, 18 h
Escherichia coli [28] = assay: Antibacterial activity against extended-spectrum beta-lactamase deficient Escherichia coli 1515 after 18 hrs by CLSI broth microdilution method; format: functional; conditions: Escherichia coli, 1515, 18 h
Staphylococcus aureus [29] = assay: Antibacterial activity against methicillin-sensitive Staphylococcus aureus 12-28 after 18 hrs by CLSI broth microdilution method; format: functional; conditions: 12-28, 18 h
[30] = system: Staphylococcus epidermidis; assay: Antibacterial activity against methicillin-sensitive Staphylococcus epidermidis 12-6 after 18 hrs by CLSI broth microdilution method; format: functional; conditions: 12-6, 18 h
Proteus vulgaris = assay: Antibacterial activity against Proteus vulgaris ATCC 29905 after 18 hrs by CLSI broth microdilution method; format: functional; conditions: ATCC 29905, 18 h

SMILES	MIC (Enterococcus faecalis [1])	MIC (Escherichia coli [2])	MIC (Pseudomonas aeruginosa [3])	MIC (Klebsiella pneumoniae [4])	MIC (Enterococcus faecium [5])	MIC (Staphylococcus aureus [6])	MIC [7]	MIC (Klebsiella pneumoniae [8])	MIC [9]	MIC (Klebsiella aerogenes)	MIC [10]	MIC (Enterococcus faecium [11])	MIC (Enterobacter cloacae)	MIC (Escherichia coli [12])	MIC (Staphylococcus aureus [13])	MIC (Enterococcus faecalis [14])	MIC (Serratia marcescens)	MIC (Enterococcus faecium [15])	MIC (Klebsiella pneumoniae [16])	MIC (Klebsiella pneumoniae [17])	also measured
CN1CCN(C(=N)c2ccc3cc(-c4ccc(-c5cc6ccc(C(=N)N7CCN(C)CC7)cc6[nH]5)cc4)[nH]c3c2)CC1	64 µg/mL (≈ 115 µM)	8 µg/mL (≈ 14.3 µM)	64 µg/mL (≈ 115 µM)	64 µg/mL (≈ 115 µM)	8 µg/mL (≈ 14.3 µM)	1 µg/mL (≈ 1.79 µM)	128 µg/mL (≈ 229 µM)	64 µg/mL (≈ 115 µM)	128 µg/mL (≈ 229 µM)	16 µg/mL (≈ 28.6 µM)	1 µg/mL (≈ 1.79 µM)	8 µg/mL (≈ 14.3 µM)	8 µg/mL (≈ 14.3 µM)	8 µg/mL (≈ 14.3 µM)	1 µg/mL (≈ 1.79 µM)	8 µg/mL (≈ 14.3 µM)	> 128 µg/mL	8 µg/mL (≈ 14.3 µM)	16 µg/mL (≈ 28.6 µM)	16 µg/mL (≈ 28.6 µM)	CC50 at 48 h [18]: 18.9 µg/mL (≈ 33.9 µM); MIC (Klebsiella pneumoniae [19]): 16 µg/mL (≈ 28.6 µM); MIC (Escherichia coli [20]): 8 µg/mL (≈ 14.3 µM); MIC (Pseudomonas aeruginosa [21]): > 128 µg/mL; MIC (Citrobacter freundii): 8 µg/mL (≈ 14.3 µM); MIC (Proteus mirabilis): > 128 µg/mL; MIC (Staphylococcus aureus [22]): 1 µg/mL (≈ 1.79 µM); MIC (Enterococcus faecalis [23]): 64 µg/mL (≈ 115 µM); MIC (Enterococcus faecalis [24]): 8 µg/mL (≈ 14.3 µM); MIC (Staphylococcus aureus [25]): 1 µg/mL (≈ 1.79 µM); MIC (Providencia rettgeri): 8 µg/mL (≈ 14.3 µM); MIC [26]: 1 µg/mL (≈ 1.79 µM); MIC (Pseudomonas aeruginosa [27]): 128 µg/mL (≈ 229 µM); MIC (Escherichia coli [28]): 8 µg/mL (≈ 14.3 µM); MIC (Staphylococcus aureus [29]): 1 µg/mL (≈ 1.79 µM); MIC [30]: 2 µg/mL (≈ 3.58 µM); MIC (Proteus vulgaris): 16 µg/mL (≈ 28.6 µM)
CNC(=N)c1ccc2cc(-c3cncc(-c4cc5ccc(C(=N)NC)cc5[nH]4)c3)[nH]c2c1	> 64 µg/mL	> 64 µg/mL	> 64 µg/mL	> 64 µg/mL	> 64 µg/mL	> 64 µg/mL	> 64 µg/mL	> 64 µg/mL	> 64 µg/mL	> 64 µg/mL	8 µg/mL (≈ 19 µM)	> 64 µg/mL	> 64 µg/mL	> 64 µg/mL	> 64 µg/mL	> 64 µg/mL	> 64 µg/mL	> 64 µg/mL	> 64 µg/mL	> 64 µg/mL	CC50 at 48 h [18]: > 100 µg/mL; MIC (Klebsiella pneumoniae [19]): > 64 µg/mL; MIC (Escherichia coli [20]): > 64 µg/mL; MIC (Pseudomonas aeruginosa [21]): > 64 µg/mL; MIC (Citrobacter freundii): > 64 µg/mL; MIC (Proteus mirabilis): > 64 µg/mL; MIC (Staphylococcus aureus [22]): > 64 µg/mL; MIC (Enterococcus faecalis [23]): > 64 µg/mL; MIC (Enterococcus faecalis [24]): > 64 µg/mL; MIC (Staphylococcus aureus [25]): > 64 µg/mL; MIC (Providencia rettgeri): > 64 µg/mL; MIC [26]: 4 µg/mL (≈ 9.49 µM); MIC (Pseudomonas aeruginosa [27]): > 64 µg/mL; MIC (Escherichia coli [28]): > 64 µg/mL; MIC (Staphylococcus aureus [29]): > 64 µg/mL; MIC [30]: 8 µg/mL (≈ 19 µM); MIC (Proteus vulgaris): > 64 µg/mL
CCC(CC)NC(=N)c1ccc2cc(-c3ccc(-c4cc5ccc(C(=N)NC(CC)CC)cc5[nH]4)cc3)[nH]c2c1	4 µg/mL (≈ 7.51 µM)	8 µg/mL (≈ 15 µM)	16 µg/mL (≈ 30 µM)	8 µg/mL (≈ 15 µM)	2 µg/mL (≈ 3.75 µM)	1 µg/mL (≈ 1.88 µM)	16 µg/mL (≈ 30 µM)	16 µg/mL (≈ 30 µM)	16 µg/mL (≈ 30 µM)	8 µg/mL (≈ 15 µM)	0.5 µg/mL (≈ 0.939 µM)	2 µg/mL (≈ 3.75 µM)	8 µg/mL (≈ 15 µM)	8 µg/mL (≈ 15 µM)	2 µg/mL (≈ 3.75 µM)	4 µg/mL (≈ 7.51 µM)	32 µg/mL (≈ 60.1 µM)	2 µg/mL (≈ 3.75 µM)	8 µg/mL (≈ 15 µM)	8 µg/mL (≈ 15 µM)	CC50 at 48 h [18]: 3.42 µg/mL (≈ 6.41 µM); MIC (Klebsiella pneumoniae [19]): 8 µg/mL (≈ 15 µM); MIC (Escherichia coli [20]): 8 µg/mL (≈ 15 µM); MIC (Pseudomonas aeruginosa [21]): 32 µg/mL (≈ 60.1 µM); MIC (Citrobacter freundii): 8 µg/mL (≈ 15 µM); MIC (Proteus mirabilis): 16 µg/mL (≈ 30 µM); MIC (Staphylococcus aureus [22]): 1 µg/mL (≈ 1.88 µM); MIC (Enterococcus faecalis [23]): 4 µg/mL (≈ 7.51 µM); MIC (Enterococcus faecalis [24]): 2 µg/mL (≈ 3.75 µM); MIC (Staphylococcus aureus [25]): 1 µg/mL (≈ 1.88 µM); MIC (Providencia rettgeri): 8 µg/mL (≈ 15 µM); MIC [26]: 0.5 µg/mL (≈ 0.939 µM); MIC (Pseudomonas aeruginosa [27]): 64 µg/mL (≈ 120 µM); MIC (Escherichia coli [28]): 8 µg/mL (≈ 15 µM); MIC (Staphylococcus aureus [29]): 2 µg/mL (≈ 3.75 µM); MIC [30]: 0.5 µg/mL (≈ 0.939 µM); MIC (Proteus vulgaris): 8 µg/mL (≈ 15 µM)
